Legend:
[1] = 72 hours after injection; cited from earlier work
[2] = In vivo elution: HPLC detection of TA in tissues after 4-week subretinal PCL/TA implantation; settings: four weeks after subretinal implant, PCL/TA 60:40, rabbit

Structure (SMILES)	triamcinolone present in the vitreous that is associated with other tissues including the retina, pigment epithelium, and sclera [1]	TA in the anterior structures (HPLC) [2]	TA in the blood (HPLC) [2]	TA in the posterior tissue samples (HPLC) [2]
C[C@]12C=CC(=O)C=C1CC[C@H]1[C@@H]3C[C@@H](O)[C@](O)(C(=O)CO)[C@@]3(C)C[C@H](O)[C@@]12F [triamcinolone]	less than 1%			
CC1(C)O[C@@H]2C[C@H]3[C@@H]4CCC5=CC(=O)C=C[C@]5(C)[C@@]4(F)[C@@H](O)C[C@]3(C)[C@]2(C(=O)CO)O1 [TA, Triamcinolone acetonide]		not detected	not detected	confirmed the presence

— patent US8454582B2, “Methods and devices for the treatment of ocular conditions” (Surmodics, Inc., priority 2004, dated 2013)
